# Experiments:
# brain blood circulation = assay: Effect on the brain blood circulation and on the consumption of oxygen and glucose by the brain, anaesthetized dogs; format: in vivo, dog; design: O2 cap. = amount of oxygen supplied to the brain tissues / art. QO2 / QO2: unit not given here; conditions: 100 mg/kg perorally
# Text: Effect of tetrahydroalstonine on the brain blood circulation and on the consumption of oxygen and of glucose by the brain.
# On arterial and venous blood sample the concentration of glucose has been determined enzymatically according to the method of hexokinase (C. Hennon and co-workers).
# The determination of the pressure of oxygene (PO2) has been carried out with a polarographic analyser and that of carbonic anhydride (PCO2) in the arterial or venous brain blood, using a Duo-Matic electrometer IL 123.
# blood-sugar levels = conditions: rat, thesis (Kocialski); cited from earlier work
# [1] = system: Hexobarbital-induced sleeping time; assay: Hexobarbital-induced sleeping time; format: in vivo; conditions: rodents, high dosages
smiles,measurement,setting,value
COC(=O)C1=CO[C@@H](C)[C@@H]2CN3CCc4c([nH]c5ccccc45)[C@@H]3C[C@H]12 [Tetrahydroalstonine],concentration of oxygen in the brain capillars,brain blood circulation,increased
same,consumption of glucose by the brain,brain blood circulation,increase
same,consumption of oxygen per minute,brain blood circulation,increased
same,difference in concentration between arterial and venous oxygen,brain blood circulation,increased
same,partial pressure in brain venous oxygen (PO2 VC),brain blood circulation,decrease
same,Cerebral flow,brain blood circulation; 45 minutes (Table I),"89,8 ml/mn"
same,Concentration in capillary oxygen,brain blood circulation; 45 minutes (Table I),"9,3"
same,Concentration in oxygen/mn,brain blood circulation; 45 minutes (Table I),"12,8"
same,Consumption in glucose/mn,brain blood circulation; 45 minutes (Table I),"7,1"
same,G/O = consumption in glucose per mn / concentration in oxygen,brain blood circulation; 45 minutes (Table I),"0,6"
same,QO2,brain blood circulation; 45 minutes (Table I),"14,3"
same,Cerebral flow,brain blood circulation; 67 minutes (Table I),"92,4 ml/mn"
same,Concentration in capillary oxygen,brain blood circulation; 67 minutes (Table I),"8,7"
same,Concentration in oxygen/mn,brain blood circulation; 67 minutes (Table I),"12,4"
same,Consumption in glucose/mn,brain blood circulation; 67 minutes (Table I),"10,7"
same,G/O = consumption in glucose per mn / concentration in oxygen,brain blood circulation; 67 minutes (Table I),"0,9"
same,QO2,brain blood circulation; 67 minutes (Table I),"13,1"
same,Cerebral flow,brain blood circulation; 90 minutes (Table I),"95,8 ml/mn"
same,Concentration in capillary oxygen,brain blood circulation; 90 minutes (Table I),"8,5"
same,Concentration in oxygen/mn,brain blood circulation; 90 minutes (Table I),"12,4"
same,Consumption in glucose/mn,brain blood circulation; 90 minutes (Table I),"11,3"
same,G/O = consumption in glucose per mn / concentration in oxygen,brain blood circulation; 90 minutes (Table I),"1,0"
same,QO2,brain blood circulation; 90 minutes (Table I),"12,6"
same,Cerebral flow,brain blood circulation; 112 minutes (Table I),"90,6 ml/mn"
same,Concentration in capillary oxygen,brain blood circulation; 112 minutes (Table I),"8,4"
same,Concentration in oxygen/mn,brain blood circulation; 112 minutes (Table I),"11,5"
same,Consumption in glucose/mn,brain blood circulation; 112 minutes (Table I),"12,1"
same,G/O = consumption in glucose per mn / concentration in oxygen,brain blood circulation; 112 minutes (Table I),"1,1"
same,QO2,brain blood circulation; 112 minutes (Table I),"12,4"
same,Cerebral flow,brain blood circulation; 135 minutes (Table I),"84,8 ml/mn"
same,Concentration in capillary oxygen,brain blood circulation; 135 minutes (Table I),"8,5"
same,Concentration in oxygen/mn,brain blood circulation; 135 minutes (Table I),"11,4"
same,Consumption in glucose/mn,brain blood circulation; 135 minutes (Table I),"10,9"
same,G/O = consumption in glucose per mn / concentration in oxygen,brain blood circulation; 135 minutes (Table I),"1,2"
same,QO2,brain blood circulation; 135 minutes (Table I),"12,9"
same,CE p. 100 glucose,brain blood circulation; +45 min. (Table II),"8,22 p. 100"
same,DC = Cerebral blood flow,brain blood circulation; +45 min. (Table II),"90,0 ml/mn"
same,G/O,brain blood circulation; +45 min. (Table II),"1,08"
same,O2 /min.,brain blood circulation; +45 min. (Table II),"6,14"
same,O2 cap. = amount of oxygen supplied to the brain tissues,brain blood circulation; +45 min. (Table II),"5,05"
same,PO2 vc = partial pressure of venous oxygen in the brain,brain blood circulation; +45 min. (Table II),"28,50"
same,art. QO2,brain blood circulation; +45 min. (Table II),"14,16"
same,art. pH,brain blood circulation; +45 min. (Table II),"7,39"
same,arterial Q gluc.,brain blood circulation; +45 min. (Table II),900 mg
same,consumption in Gluc./min.,brain blood circulation; +45 min. (Table II),"6,66"
same,ΔH^+/ΔQO2,brain blood circulation; +45 min. (Table II),"-4,44"
same,ΔPCO2/ΔQO2,brain blood circulation; +45 min. (Table II),"109,97"
same,ΔQO2,brain blood circulation; +45 min. (Table II),"+6,82"
same,CE p. 100 glucose,brain blood circulation; +67 min. (Table II),"12,73 p. 100"
same,DC = Cerebral blood flow,brain blood circulation; +67 min. (Table II),"99,0 ml/mn"
same,G/O,brain blood circulation; +67 min. (Table II),"1,38"
same,O2 /min.,brain blood circulation; +67 min. (Table II),"8,40"
same,O2 cap. = amount of oxygen supplied to the brain tissues,brain blood circulation; +67 min. (Table II),"5,95"
same,PO2 vc = partial pressure of venous oxygen in the brain,brain blood circulation; +67 min. (Table II),"24,25"
same,art. QO2,brain blood circulation; +67 min. (Table II),"14,50"
same,art. pH,brain blood circulation; +67 min. (Table II),"7,425"
same,arterial Q gluc.,brain blood circulation; +67 min. (Table II),919 mg
same,consumption in Gluc./min.,brain blood circulation; +67 min. (Table II),"11,58"
same,ΔH^+/ΔQO2,brain blood circulation; +67 min. (Table II),"-6,75"
same,ΔPCO2/ΔQO2,brain blood circulation; +67 min. (Table II),"114,84"
same,ΔQO2,brain blood circulation; +67 min. (Table II),"+8,49"
same,CE p. 100 glucose,brain blood circulation; +90 min. (Table II),"11,70 p. 100"
same,DC = Cerebral blood flow,brain blood circulation; +90 min. (Table II),"112,5 ml/mn"
same,G/O,brain blood circulation; +90 min. (Table II),"1,20"
same,O2 /min.,brain blood circulation; +90 min. (Table II),"10,38"
same,O2 cap. = amount of oxygen supplied to the brain tissues,brain blood circulation; +90 min. (Table II),"6,07"
same,PO2 vc = partial pressure of venous oxygen in the brain,brain blood circulation; +90 min. (Table II),"21,75"
same,art. QO2,brain blood circulation; +90 min. (Table II),"14,25"
same,art. pH,brain blood circulation; +90 min. (Table II),"7,455"
same,arterial Q gluc.,brain blood circulation; +90 min. (Table II),949 mg
same,consumption in Gluc./min.,brain blood circulation; +90 min. (Table II),"12,49"
same,ΔH^+/ΔQO2,brain blood circulation; +90 min. (Table II),"-7,96"
same,ΔPCO2/ΔQO2,brain blood circulation; +90 min. (Table II),"111,05"
same,ΔQO2,brain blood circulation; +90 min. (Table II),"+9,23"
same,CE p. 100 glucose,brain blood circulation; +112 min. (Table II),"12,24 p. 100"
same,DC = Cerebral blood flow,brain blood circulation; +112 min. (Table II),"112,5 ml/mn"
same,G/O,brain blood circulation; +112 min. (Table II),"1,37"
same,O2 /min.,brain blood circulation; +112 min. (Table II),"9,74"
same,O2 cap. = amount of oxygen supplied to the brain tissues,brain blood circulation; +112 min. (Table II),"5,88"
same,PO2 vc = partial pressure of venous oxygen in the brain,brain blood circulation; +112 min. (Table II),"23,0"
same,art. QO2,brain blood circulation; +112 min. (Table II),"13,95"
same,art. pH,brain blood circulation; +112 min. (Table II),"7,44"
same,arterial Q gluc.,brain blood circulation; +112 min. (Table II),972 mg
same,consumption in Gluc./min.,brain blood circulation; +112 min. (Table II),"13,39"
same,ΔH^+/ΔQO2,brain blood circulation; +112 min. (Table II),"-7,39"
same,ΔPCO2/ΔQO2,brain blood circulation; +112 min. (Table II),"103,93"
same,ΔQO2,brain blood circulation; +112 min. (Table II),"+8,66"
same,CE p. 100 glucose,brain blood circulation; +135 min. (Table II),"12,84 p. 100"
same,DC = Cerebral blood flow,brain blood circulation; +135 min. (Table II),"92,0 ml/mn"
same,G/O,brain blood circulation; +135 min. (Table II),"1,28"
same,O2 /min.,brain blood circulation; +135 min. (Table II),"9,22"
same,O2 cap. = amount of oxygen supplied to the brain tissues,brain blood circulation; +135 min. (Table II),"6,33"
same,PO2 vc = partial pressure of venous oxygen in the brain,brain blood circulation; +135 min. (Table II),"19,75"
same,art. QO2,brain blood circulation; +135 min. (Table II),"14,18"
same,art. pH,brain blood circulation; +135 min. (Table II),"7,48"
same,arterial Q gluc.,brain blood circulation; +135 min. (Table II),997 mg
same,consumption in Gluc./min.,brain blood circulation; +135 min. (Table II),"11,78"
same,ΔH^+/ΔQO2,brain blood circulation; +135 min. (Table II),"-8,75"
same,ΔPCO2/ΔQO2,brain blood circulation; +135 min. (Table II),"129,74"
same,ΔQO2,brain blood circulation; +135 min. (Table II),"+10,02"
same,blood flow,brain blood circulation; conclusion,noticeable and extended over a large period of time increase
same,brain metabolism,brain blood circulation; conclusion,significant improvement
same,effect on blood-sugar levels,blood-sugar levels,negative
same,Hexobarbital-induced sleeping time,[1],increased
